Test system: histamine H2 -receptors
Experiment: inhibition of histamine-stimulated secretion of gastric acid from lumen-perfused stomachs of rats anaesthetised with urethane
Assay type: in vivo, rat
Settings: i.v., lumen-perfused stomach of urethane-anaesthetised rats

Row | Compound | dose causing 50% inhibition of maximal acid secretion
1 | Cc1ccc(Cc2cnc(CCSCc3csc(NC(=N)N)n3)[nH]c2=O)cn1.Cl.Cl.Cl.O [Example 1, 2-[2-(2-guanidino-4-thiazolylmethylthio)ethyl]-5-(6-methyl-3-pyridylmethyl)-4-pyrimidone trihydrochloride hydrate] | less than 1 micromole kg^-1
2 | Cc1ccc(Cc2cnc(CCSCc3ccc(CN(C)C)o3)[nH]c2=O)cn1 [Example 2, 2-[2-(5-dimethylaminomethyl-2-furanylmethylthio)ethyl]-5-(6-methyl-3-pyridyl-ylmethyl)-4-pyrimidone] | less than 1 micromole kg^-1

Reference: patent US4808589A, “Pyrimidone derivatives” (Smith Kline & French Laboratories Limited, priority 1982, dated 1989)
